Source: ChEMBL document CHEMBL1201862, “PubChem BioAssay data set” (2004)
The source made the active and inactive calls.

Columns and labels:
HEK293 [1] = experiment: cells; conditions: Homo sapiens
HEK293 [2] = experiment: cells; conditions: Homo sapiens; remark: listed apart in the source
[3] = molecular target: T1, RNA-binding protein pos-1 (Caenorhabditis elegans, UniProt G5EF15); experiment: disruptors of C. elegans POS-1 RNA interaction – biochemical, fluorescence polarization, dose response (AID 1964);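 further: purified POS-1 fused to maltose binding protein made in E. coli; potency of compounds blocking POS-1 binding to fluorescent RNA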
T1 sequence (G5EF15 whole entry): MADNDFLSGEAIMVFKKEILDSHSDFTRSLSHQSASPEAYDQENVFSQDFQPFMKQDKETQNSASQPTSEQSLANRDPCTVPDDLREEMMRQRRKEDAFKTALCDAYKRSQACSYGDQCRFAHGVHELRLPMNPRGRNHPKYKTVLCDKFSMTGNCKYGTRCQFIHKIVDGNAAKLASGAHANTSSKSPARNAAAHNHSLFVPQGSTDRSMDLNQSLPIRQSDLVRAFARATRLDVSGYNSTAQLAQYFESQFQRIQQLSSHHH

[4] = molecular target: T2, Zinc finger protein mex-5 (Caenorhabditis elegans, UniProt Q9XUB2); experiment: potency of MEX-5 RNA-binding blockers – biochemical, C. elegans, fluorescence polarization, dose response (AID 1960)
T2 sequence (Q9XUB2 whole entry): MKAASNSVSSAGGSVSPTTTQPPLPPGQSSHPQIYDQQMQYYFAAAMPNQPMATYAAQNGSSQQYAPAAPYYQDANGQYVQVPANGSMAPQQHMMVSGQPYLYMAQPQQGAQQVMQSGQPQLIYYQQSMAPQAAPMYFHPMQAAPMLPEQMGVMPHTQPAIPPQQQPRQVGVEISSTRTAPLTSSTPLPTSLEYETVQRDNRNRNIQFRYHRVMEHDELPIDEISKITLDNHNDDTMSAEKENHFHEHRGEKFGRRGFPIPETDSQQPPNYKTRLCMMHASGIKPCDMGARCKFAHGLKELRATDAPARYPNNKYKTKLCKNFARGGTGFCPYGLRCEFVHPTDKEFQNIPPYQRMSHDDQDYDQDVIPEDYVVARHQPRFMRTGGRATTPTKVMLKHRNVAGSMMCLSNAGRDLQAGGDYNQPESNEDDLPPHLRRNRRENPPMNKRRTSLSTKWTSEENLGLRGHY

Keap1/Nrf2 = Keap1/Nrf2 (Homo sapiens, UniProt Q14145); experiment: disruptors of Keap1 binding to Nrf2 peptide – biochemical, fluorescence polarization, cherry-picked samples, dose response (AID 588683)
Genome polyprotein = Genome polyprotein (dengue virus type 2, UniProt P29990); experiment: flavivirus cap methylation enzyme inhibition – biochemical, confirmation dose response, primary screen (AID 588689); assay type: functional
[5] = decrease of insulin promoter-GFP reporter – imaging, high-content screening, mouse beta cells (AID 1628); assay type: functional; conditions: MIN6
[6] = system: Streptococcus sp. 'group A'; experiment: Streptococcus pyogenes SK(-)GAS viability under kanamycin – luminescence, BacTiterGlo, confirmation, counter-screen for streptokinase expression inhibitor project, dose response (AID 1900); assay type: functional, organism-based
[7] = MIN6 cell viability loss – mouse insulinoma, cytotoxicity control, dose response (AID 2122); assay type: functional;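 further: confirmatory high-throughput counterscreen run to flag cytotoxic compounds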
Streptokinase A = molecular target: T3, Streptokinase A (Streptococcus pyogenes serotype M1, UniProt P10520); experiment: viability-normalized secreted streptokinase activity reduction – plasminogen activation absorbance, OD405, dose response (AID 1914); assay type: functional, Streptococcus pyogenes M1 GAS;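 further: secreted streptokinase activity via plasminogen activation per viability signal from cell pellet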
T3 sequence (P10520 whole entry): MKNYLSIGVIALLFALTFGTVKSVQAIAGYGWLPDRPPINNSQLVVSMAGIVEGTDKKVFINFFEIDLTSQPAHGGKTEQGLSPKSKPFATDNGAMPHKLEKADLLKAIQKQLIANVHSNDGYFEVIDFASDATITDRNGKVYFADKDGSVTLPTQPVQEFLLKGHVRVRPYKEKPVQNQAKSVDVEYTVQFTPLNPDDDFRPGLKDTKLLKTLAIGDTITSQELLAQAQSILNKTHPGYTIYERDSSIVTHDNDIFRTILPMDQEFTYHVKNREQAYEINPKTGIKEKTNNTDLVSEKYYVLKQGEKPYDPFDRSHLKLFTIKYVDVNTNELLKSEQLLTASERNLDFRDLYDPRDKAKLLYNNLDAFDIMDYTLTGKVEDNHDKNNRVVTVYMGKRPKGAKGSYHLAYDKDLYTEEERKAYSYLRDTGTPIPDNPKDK

NS3 = NS3 (Hepatitis C virus, UniProt A3EZJ3); experiment: PubChem AID 2173; parameters: species or system Hepacivirus hominis
[8] = Trypanosoma cruzi growth suppression in host cells – NIH3T3 host cells, beta-gal luminescence, confirmation (AID 2044); assay type: functional, cell-based;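 further: intracellular parasites grown in NIH/3T3 mouse fibroblasts as host cells; luminescent beta-galactosidase reporter signal from transgenic T. cruzi replicating inside host cells; inhibitors lower the luminescence signal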
[9] = viability of PTEN-deleted HCT116 cells – cell-based, HCT116 PTEN knockout, dose response (AID 1047); assay type: functional;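 further: HCT116 colon tumor cells with PTEN knocked out; cells exposed to compound for 60 hours before readout; potency for loss of cell viability measured by luminescence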
[10] = NIH3T3 cell viability loss – ATP luminescence, mouse fibroblasts, counter-screen, dose response (AID 2010); assay type: functional, cell-based;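 further: cells exposed to compound for about 90 hours before reading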
[11] = viability of HCT116 lacking mutant beta-catenin – cell-based, human colon tumor, dose response (AID 1045); assay type: functional;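 further: HCT116 colon tumor cells with beta catenin knocked out; cells exposed to compound for 60 hours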
Streptococcus = experiment: GAS UMAA2166 growth inhibition – luminescence, BacTiterGlo, counter-screen for streptokinase expression inhibitor project, dose response (AID 1915); assay type: functional, organism-based;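 further: potency for reduction of bacterial viability or growth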
Vero = experiment: viability of Vero cells under compound – cytotoxicity control for flavivirus capping enzyme inhibitors (AID 588742); assay type: functional; conditions: Chlorocebus sabaeus
Exodeoxyribonuclease V = molecular target: T4, Exodeoxyribonuclease V (Escherichia coli (strain K12), UniProt P04993+P07648+P08394); experiment: RecBCD inhibition via phage-restricted bacterial growth – absorbance, V66 E. coli, mutant T4 phage, counter-screen for AddAB inhibitor project, dose response (AID 492957); assay type: functional, cell-based, Escherichia coli str. K-12 substr. MG1655
T4 sequence (P04993 whole entry): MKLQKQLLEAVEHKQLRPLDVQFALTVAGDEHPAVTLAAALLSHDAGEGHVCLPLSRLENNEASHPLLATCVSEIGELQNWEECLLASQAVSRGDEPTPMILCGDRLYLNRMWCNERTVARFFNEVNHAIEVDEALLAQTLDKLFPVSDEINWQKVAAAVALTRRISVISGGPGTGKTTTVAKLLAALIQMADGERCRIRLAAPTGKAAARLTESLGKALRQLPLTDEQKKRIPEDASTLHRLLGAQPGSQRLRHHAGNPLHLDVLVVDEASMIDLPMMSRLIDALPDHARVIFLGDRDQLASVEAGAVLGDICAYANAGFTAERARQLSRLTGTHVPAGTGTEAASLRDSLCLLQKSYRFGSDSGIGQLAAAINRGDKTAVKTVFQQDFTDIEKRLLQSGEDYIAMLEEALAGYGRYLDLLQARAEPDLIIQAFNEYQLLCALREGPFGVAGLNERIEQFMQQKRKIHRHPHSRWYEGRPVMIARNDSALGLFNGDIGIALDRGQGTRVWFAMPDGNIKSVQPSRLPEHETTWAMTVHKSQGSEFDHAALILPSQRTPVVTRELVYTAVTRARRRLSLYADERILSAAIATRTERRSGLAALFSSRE
T4 sequence (P07648 whole entry): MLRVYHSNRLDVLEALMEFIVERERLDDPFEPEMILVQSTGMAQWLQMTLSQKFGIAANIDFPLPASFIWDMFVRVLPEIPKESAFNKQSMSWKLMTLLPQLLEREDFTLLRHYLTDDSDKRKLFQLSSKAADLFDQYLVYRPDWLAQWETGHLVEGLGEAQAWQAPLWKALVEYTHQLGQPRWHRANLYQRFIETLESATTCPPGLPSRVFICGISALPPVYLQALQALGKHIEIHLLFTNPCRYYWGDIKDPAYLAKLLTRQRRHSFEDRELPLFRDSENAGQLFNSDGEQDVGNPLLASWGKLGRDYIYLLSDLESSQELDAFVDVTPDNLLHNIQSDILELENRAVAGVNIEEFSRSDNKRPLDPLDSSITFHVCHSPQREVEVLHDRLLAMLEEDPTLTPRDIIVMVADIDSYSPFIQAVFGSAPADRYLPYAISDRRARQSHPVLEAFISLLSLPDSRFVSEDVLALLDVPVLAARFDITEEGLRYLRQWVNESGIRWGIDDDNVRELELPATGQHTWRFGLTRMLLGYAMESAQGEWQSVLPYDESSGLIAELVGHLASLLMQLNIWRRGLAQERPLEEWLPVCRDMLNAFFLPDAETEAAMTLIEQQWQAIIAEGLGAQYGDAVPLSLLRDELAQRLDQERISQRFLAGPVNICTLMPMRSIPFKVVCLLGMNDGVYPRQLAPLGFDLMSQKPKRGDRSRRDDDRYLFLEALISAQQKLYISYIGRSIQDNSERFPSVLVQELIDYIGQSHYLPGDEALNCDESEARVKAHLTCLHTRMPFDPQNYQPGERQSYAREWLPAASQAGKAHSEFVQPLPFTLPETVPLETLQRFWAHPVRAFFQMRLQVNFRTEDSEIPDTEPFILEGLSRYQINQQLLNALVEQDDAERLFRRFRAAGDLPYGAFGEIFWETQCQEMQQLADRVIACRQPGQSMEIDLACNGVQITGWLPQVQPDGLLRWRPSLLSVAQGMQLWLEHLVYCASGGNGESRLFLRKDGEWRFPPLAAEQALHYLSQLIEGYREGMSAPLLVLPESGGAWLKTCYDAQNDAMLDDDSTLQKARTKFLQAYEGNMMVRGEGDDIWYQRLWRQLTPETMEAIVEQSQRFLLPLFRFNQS
T4 sequence (P08394 whole entry): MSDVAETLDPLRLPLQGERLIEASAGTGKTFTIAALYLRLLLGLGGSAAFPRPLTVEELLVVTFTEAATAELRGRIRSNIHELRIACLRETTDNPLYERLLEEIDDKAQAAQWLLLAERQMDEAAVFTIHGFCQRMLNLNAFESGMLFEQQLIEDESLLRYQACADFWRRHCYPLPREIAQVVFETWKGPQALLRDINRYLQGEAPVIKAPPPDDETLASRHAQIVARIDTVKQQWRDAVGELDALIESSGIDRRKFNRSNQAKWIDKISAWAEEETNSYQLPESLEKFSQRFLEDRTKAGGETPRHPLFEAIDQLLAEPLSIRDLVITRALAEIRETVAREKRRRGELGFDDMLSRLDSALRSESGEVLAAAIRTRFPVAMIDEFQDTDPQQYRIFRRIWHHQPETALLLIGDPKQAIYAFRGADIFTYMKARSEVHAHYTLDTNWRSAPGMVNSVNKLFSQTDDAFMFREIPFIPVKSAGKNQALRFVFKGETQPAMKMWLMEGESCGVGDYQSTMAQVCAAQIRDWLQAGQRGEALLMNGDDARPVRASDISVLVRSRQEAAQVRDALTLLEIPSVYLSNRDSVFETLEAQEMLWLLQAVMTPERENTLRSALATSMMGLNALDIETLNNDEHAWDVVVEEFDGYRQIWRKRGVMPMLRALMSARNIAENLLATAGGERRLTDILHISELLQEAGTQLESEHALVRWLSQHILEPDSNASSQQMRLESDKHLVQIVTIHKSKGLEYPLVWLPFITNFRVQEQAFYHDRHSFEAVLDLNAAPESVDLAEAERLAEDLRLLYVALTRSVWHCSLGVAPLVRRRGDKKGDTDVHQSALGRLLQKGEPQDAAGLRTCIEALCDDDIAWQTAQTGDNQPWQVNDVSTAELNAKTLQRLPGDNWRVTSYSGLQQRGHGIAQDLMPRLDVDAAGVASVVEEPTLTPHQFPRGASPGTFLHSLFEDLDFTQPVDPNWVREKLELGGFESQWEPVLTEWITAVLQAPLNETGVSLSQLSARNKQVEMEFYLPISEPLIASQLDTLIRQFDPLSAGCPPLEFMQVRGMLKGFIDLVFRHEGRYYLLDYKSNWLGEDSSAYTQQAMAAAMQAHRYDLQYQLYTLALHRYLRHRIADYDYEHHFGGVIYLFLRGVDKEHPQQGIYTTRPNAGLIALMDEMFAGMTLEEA

[12] = Counterscreen for AddAB inhibitors: absorbance-based bacterial cell-based high throughput dose response assay for inhibitors of bacterial viability. [Related pubchem assays (depositor defined):AID435030, AID449728, AID449731, AID488942, AID488955, AID488956]; assay type: functional

Chain of NS3 (A3EZJ3 whole entry): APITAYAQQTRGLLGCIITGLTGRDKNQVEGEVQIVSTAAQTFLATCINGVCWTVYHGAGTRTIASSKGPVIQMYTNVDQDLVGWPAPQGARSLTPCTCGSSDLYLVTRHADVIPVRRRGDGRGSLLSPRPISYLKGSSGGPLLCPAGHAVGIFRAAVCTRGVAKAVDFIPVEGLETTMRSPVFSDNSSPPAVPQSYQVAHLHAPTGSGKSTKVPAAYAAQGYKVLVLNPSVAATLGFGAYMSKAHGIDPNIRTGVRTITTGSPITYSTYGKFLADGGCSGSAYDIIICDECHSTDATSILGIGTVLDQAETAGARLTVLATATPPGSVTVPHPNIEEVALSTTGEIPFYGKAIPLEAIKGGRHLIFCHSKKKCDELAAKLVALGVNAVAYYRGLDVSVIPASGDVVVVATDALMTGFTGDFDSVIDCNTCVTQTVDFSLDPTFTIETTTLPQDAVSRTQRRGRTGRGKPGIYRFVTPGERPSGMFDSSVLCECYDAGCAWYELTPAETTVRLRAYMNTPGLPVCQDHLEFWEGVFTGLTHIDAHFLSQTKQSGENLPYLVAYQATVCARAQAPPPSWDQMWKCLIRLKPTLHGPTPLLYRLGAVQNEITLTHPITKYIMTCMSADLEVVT
Chain of Genome polyprotein (P29990 2492-3391 limits assumed): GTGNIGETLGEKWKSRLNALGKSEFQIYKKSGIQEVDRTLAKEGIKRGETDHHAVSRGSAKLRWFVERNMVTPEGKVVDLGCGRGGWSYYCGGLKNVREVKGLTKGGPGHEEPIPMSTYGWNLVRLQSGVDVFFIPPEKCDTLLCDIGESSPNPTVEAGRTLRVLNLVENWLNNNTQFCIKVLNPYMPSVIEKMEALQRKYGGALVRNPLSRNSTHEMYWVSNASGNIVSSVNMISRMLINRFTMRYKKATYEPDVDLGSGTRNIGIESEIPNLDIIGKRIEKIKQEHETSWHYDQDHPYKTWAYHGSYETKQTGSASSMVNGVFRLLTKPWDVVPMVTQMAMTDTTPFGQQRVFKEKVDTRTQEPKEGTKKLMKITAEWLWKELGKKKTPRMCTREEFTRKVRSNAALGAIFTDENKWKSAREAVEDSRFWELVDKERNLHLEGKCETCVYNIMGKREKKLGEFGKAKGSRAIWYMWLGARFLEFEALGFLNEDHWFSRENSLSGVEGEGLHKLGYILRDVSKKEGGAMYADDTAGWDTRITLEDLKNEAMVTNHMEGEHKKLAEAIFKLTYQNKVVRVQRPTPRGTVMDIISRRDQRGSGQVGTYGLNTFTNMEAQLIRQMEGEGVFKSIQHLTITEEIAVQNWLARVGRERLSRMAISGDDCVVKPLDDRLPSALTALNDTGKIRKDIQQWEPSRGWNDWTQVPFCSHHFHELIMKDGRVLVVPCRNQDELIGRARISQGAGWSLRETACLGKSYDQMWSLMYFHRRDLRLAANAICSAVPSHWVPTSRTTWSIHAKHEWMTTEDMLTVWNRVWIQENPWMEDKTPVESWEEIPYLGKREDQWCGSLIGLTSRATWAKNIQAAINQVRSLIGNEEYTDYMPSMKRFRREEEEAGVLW
Chain of Keap1/Nrf2 (Q16236 whole entry): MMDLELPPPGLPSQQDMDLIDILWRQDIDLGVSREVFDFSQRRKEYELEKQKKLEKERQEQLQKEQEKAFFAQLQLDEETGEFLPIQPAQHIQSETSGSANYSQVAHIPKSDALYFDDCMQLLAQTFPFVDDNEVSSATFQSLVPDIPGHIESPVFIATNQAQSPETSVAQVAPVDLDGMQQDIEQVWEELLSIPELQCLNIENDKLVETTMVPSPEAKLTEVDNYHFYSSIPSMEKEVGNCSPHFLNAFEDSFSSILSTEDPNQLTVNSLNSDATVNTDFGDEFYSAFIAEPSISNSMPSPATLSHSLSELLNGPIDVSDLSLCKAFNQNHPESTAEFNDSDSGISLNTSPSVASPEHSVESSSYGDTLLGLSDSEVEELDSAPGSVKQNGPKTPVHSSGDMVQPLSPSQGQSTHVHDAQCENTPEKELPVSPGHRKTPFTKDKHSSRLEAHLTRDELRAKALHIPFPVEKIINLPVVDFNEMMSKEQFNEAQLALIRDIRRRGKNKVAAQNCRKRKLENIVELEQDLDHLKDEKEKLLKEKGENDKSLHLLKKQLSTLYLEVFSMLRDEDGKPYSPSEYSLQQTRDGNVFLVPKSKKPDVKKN
Chain of Keap1/Nrf2 (Q14145 whole entry): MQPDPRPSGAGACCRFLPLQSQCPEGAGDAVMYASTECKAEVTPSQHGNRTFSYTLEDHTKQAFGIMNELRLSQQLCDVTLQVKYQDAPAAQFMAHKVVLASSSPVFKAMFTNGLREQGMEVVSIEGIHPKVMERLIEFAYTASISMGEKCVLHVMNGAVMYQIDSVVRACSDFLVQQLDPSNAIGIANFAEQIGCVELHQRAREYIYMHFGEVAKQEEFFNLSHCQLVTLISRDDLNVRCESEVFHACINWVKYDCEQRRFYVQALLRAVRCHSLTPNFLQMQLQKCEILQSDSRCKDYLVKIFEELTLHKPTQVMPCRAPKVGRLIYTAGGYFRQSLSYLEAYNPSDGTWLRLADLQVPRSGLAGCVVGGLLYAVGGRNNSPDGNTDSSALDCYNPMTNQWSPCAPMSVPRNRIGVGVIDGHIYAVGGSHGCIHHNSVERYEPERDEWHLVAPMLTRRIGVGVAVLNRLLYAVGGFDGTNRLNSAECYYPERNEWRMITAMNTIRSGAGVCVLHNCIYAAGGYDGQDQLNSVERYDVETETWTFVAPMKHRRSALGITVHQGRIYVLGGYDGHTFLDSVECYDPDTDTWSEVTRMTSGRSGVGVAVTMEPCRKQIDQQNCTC

Compound: Cc1cccc(C2CC(c3ccccc3)Nc3ncnn32)c1 (stereo unspecified)
- EC50 (HEK293 [1]): > 59.6 µM (inactive)
- EC50 (HEK293 [2]): > 59.6 µM (inactive)

Compound: Cc1c(N)cc(N)cc1C(=O)O
- EC50 [3]: > 300 µM (not active)
- EC50 [4]: 27.7 µM (active)
- AC50 (Keap1/Nrf2): > 52 µM (inactive)
- IC50 (Genome polyprotein): > 100 µM (active)

Compound: O=C(/C=C/c1ccccc1Cl)c1ccccc(=O)c1O
- IC50 [5]: 3.72 µM (active)
- EC50 [6]: 1.61 µM (active)
- IC50 [7]: 4.43 µM (active)
- EC50 (Streptokinase A): > 150 µM (not active)
- IC50 (NS3): 4.49 µM (active)
- EC50 [8]: 1.22 µM (active)
- EC50 [9]: 1.29 µM (active)
- EC50 [10]: 6.37 µM (active)
- EC50 [11]: 1.07 µM (active)
- EC50 (Streptococcus): 9.56 µM (active)
- CC50 (Vero): 9.47 µM (active)

Compound: CC(Sc1ccsc1[N+](=O)[O-])C(=O)NCc1ccco1 (stereo unspecified)
- IC50 (Exodeoxyribonuclease V): > 119 µM (inactive)
- IC50 [12]: > 119 µM (inactive)

Compound: CC(=O)OCC(=O)[C@@]1(O)CC[C@H]2[C@@H]3CCC4=CC(=O)C=C[C@]4(C)[C@@]3(Cl)[C@@H](Cl)C[C@@]21C [DICHLORISONE ACETATE]
- IC50 [5]: < 0.25 µM (active)
- IC50 [7]: > 16 µM (inactive)
